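Results reflect a 48-hour exposure of cells in 96-well plates to compound at five concentrations. GI50 marks 50% less growth. TGI: total growth inhibition.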
Legend:
Experiment in all cases: inhibition of tumour cell growth, NCI panel, 48 h
U251 CNS = tested on: U251 CNS
COLO 205 colon = tested on: COLO 205 colon
MALME-3M melanoma = tested on: MALME-3M melanoma
OVCAR-4 ovarian = tested on: OVCAR-4 ovarian
HS 578T breast = tested on: HS 578T breast
HT29 colon = tested on: HT29 colon
RXF 393 renal = tested on: RXF 393 renal
NCI/ADR-RES ovarian = tested on: NCI/ADR-RES ovarian
NCI-H522 lung = tested on: NCI-H522 lung
UACC-62 melanoma = tested on: UACC-62 melanoma

Row | Compound | GI50 (U251 CNS) | TGI (U251 CNS) | GI50 (COLO 205 colon) | TGI (COLO 205 colon) | GI50 (MALME-3M melanoma) | TGI (MALME-3M melanoma) | GI50 (OVCAR-4 ovarian) | TGI (OVCAR-4 ovarian) | GI50 (HS 578T breast) | TGI (HS 578T breast) | GI50 (HT29 colon) | TGI (HT29 colon) | GI50 (RXF 393 renal) | TGI (RXF 393 renal) | GI50 (NCI/ADR-RES ovarian) | TGI (NCI/ADR-RES ovarian) | GI50 (NCI-H522 lung) | TGI (NCI-H522 lung) | GI50 (UACC-62 melanoma) | TGI (UACC-62 melanoma)
1 | COc1cc2c(N3CCN(C(=O)Nc4ccc(OC(C)C)cc4)CC3)ncnc2cc1OCCCN1CCCCC1 | 14 µM | 41.8 µM | 11.9 µM | 26.5 µM | 14.3 µM | 29 µM | 14.4 µM | 53.9 µM | 10.4 µM | 61.1 µM | 6.59 µM | 26.4 µM | 8.61 µM | 23.6 µM | 53.1 µM | > 100 µM | 16.6 µM | 36.1 µM | 15.8 µM | 31 µM
2 | CN(C)CCCC1(c2ccc(F)cc2)OCc2cc(-c3cccc4[nH]ccc34)ccc21 (stereo not drawn) | 1.52 µM | 2.89 µM | 1.47 µM | 2.88 µM | 1.56 µM | 3.01 µM | 1.97 µM | 4.51 µM | 2.12 µM | 5.03 µM | 1.6 µM | 3.39 µM | 1.46 µM | 2.88 µM | 1.72 µM | 3.38 µM | 1.59 µM | 3.22 µM | 1.76 µM | 3.23 µM
3 | CCN(CC)CCCNc1ccc(C)c2sc3ccccc3c(=O)c12 | 0.602 µM | 1.96 µM | 0.189 µM | 0.384 µM | 0.193 µM | 0.402 µM | 2.12 µM | 33 µM | 1.49 µM | 5.7 µM | 0.279 µM | 1.09 µM | 0.446 µM | 1.76 µM | 1.4 µM | 4.48 µM | 3.08 µM | 15.9 µM | 0.205 µM | 0.42 µM
4 | O=C1C=C[C@H](O)[C@@]2(CO)O[C@@H]12 | 9.26 µM | 23.2 µM | 1.84 µM | 3.55 µM | 2.53 µM | 9.32 µM | 13 µM | 29.4 µM | 30.6 µM | > 83.6 µM | 6.32 µM | 19.7 µM | 4.96 µM | 12 µM | 16.6 µM | 45.8 µM | 1.81 µM | 3.79 µM | 4.55 µM | 14.3 µM
5 | COc1ccc2c(N)ncc(C#Cc3cc(C(=O)Nc4ccc(CN5CCN(C)CC5)c(C(F)(F)F)c4)cnc3C)c2c1 | 0.581 µM | 1.15 µM | 0.568 µM | 4.48 µM | 0.322 µM | 1.16 µM | 1.13 µM | 10.9 µM | 0.847 µM | 4.2 µM | 0.194 µM | 0.876 µM | 0.502 µM | 1.11 µM | 1.69 µM | 7.42 µM | 0.571 µM | 1.2 µM | 1.3 µM | 5.92 µM
6 | Cc1ccc2c(-c3ccnc(Nc4ccc5c(c4)OCCO5)n3)c(-c3ccc(C(F)(F)F)cc3)nn2n1 | 20.8 µM | > 25 µM | 3.17 µM | > 25 µM | > 25 µM | > 25 µM | 8.59 µM | > 25 µM | 12.4 µM | > 25 µM | 4.42 µM | > 25 µM | 4.39 µM | > 25 µM | 5.55 µM | > 25 µM | 4.57 µM | 21.4 µM | 5.84 µM | > 25 µM
7 | N#CC1(c2ccc(NC(=O)c3cccnc3NCc3ccncc3)cc2)CCCC1 | 12 µM | 25.8 µM | 7.43 µM | 33.5 µM | 12.1 µM | 50.1 µM | 13.2 µM | 98.5 µM | 9.86 µM | 50.2 µM | 9.96 µM | > 56.2 µM | 2.81 µM | 12.3 µM | 12.9 µM | 62.5 µM | 7.6 µM | 35.1 µM | 8.02 µM | 23.9 µM
8 | Cc1cccc(NC(=O)c2sc3nc4c(cc3c2N)C(=O)CCC4)c1 | 0.316 µM | > 34.6 µM | 0.231 µM |  | 0.311 µM | 16.9 µM | 0.706 µM | 32.5 µM | 0.291 µM | 12.9 µM | 0.223 µM | > 20.1 µM | 0.252 µM |  | 0.259 µM | > 49.8 µM | 0.124 µM | 1.68 µM | 0.49 µM | > 89.1 µM
9 | O=c1c2ccccc2sc2c(CO)ccc(NCCN3CCCCC3)c12 |  | 14.2 µM |  | 4.78 µM |  | 5.2 µM |  | 9.46 µM |  | 15.9 µM |  | 11.9 µM |  | 7.72 µM |  | 9.97 µM |  | 3.86 µM |  | 15.6 µM
10 | c1ccc(-c2[nH]ncc2-c2ccnc(-c3ccc(OCCn4ccnc4)cc3)c2)nc1 | > 25 µM | > 25 µM | > 25 µM | > 25 µM | 12.2 µM | > 25 µM | 16.1 µM | > 25 µM | > 25 µM | > 25 µM | > 25 µM | > 25 µM | > 25 µM | > 25 µM | > 25 µM | > 25 µM | > 25 µM | > 25 µM | > 25 µM | > 25 µM
11 | Cn1nccc1Nc1nccc(-c2ccn([C@H](CO)c3ccc(Cl)c(F)c3)c(=O)c2)n1 | 20.8 µM | > 100 µM | 0.0649 µM | 16.7 µM | 0.0289 µM | 0.307 µM | 33.5 µM | > 100 µM | 30.8 µM | > 100 µM | 0.17 µM | > 100 µM | 20.4 µM | 65.5 µM | > 100 µM | > 100 µM | 13.1 µM | > 51.9 µM | 0.0922 µM | > 59.3 µM
12 | CC(Br)C(=O)NC(CO)C(=O)O (stereo not drawn) |  | > 100 µM |  | > 100 µM |  | > 100 µM |  | > 100 µM |  | > 100 µM |  | > 100 µM |  | > 100 µM |  | > 100 µM |  | > 100 µM |  | > 100 µM
13 | O=C(Nc1cccc(-n2cc(-c3ccncc3)c(-c3cc(O)cc(Cl)c3)n2)c1)c1ccc(N2CCOCC2)c(C(F)(F)F)c1 | 1.4 µM | 6.3 µM | 17.5 µM | 64.5 µM | 1.38 µM | 5.19 µM | > 100 µM | > 100 µM | 2.94 µM | > 100 µM | 3.03 µM | 11.3 µM | 0.303 µM | 1.9 µM | 4.59 µM | > 100 µM | 0.934 µM | 12.1 µM | 1.72 µM | 9.38 µM
